Values of other authors as cited in paper PMC5861163 (European Journal of Nutrition, 2017).

System: human faecal microbiota
Design: method as in PMID 26471074
Details: after 24 h of fermentation in vitro

| Compound | degraded by the human faecal microbiota [%] |
| --- | --- |
| O=C(/C=C/c1ccc(O)cc1)CC(=O)/C=C/c1ccc(O)cc1 [bisdemethoxycurcumin] | ≤ 87 |
| demethoxycurcumin | ≤ 61 |
